The record followed here is US10562900B2 (Shanghai Haihe Pharmaceutical Co., Ltd., priority 2014, dated 2020).

What all share (type): biochemical
Common to all, as to settings: kinase domain recombinant protein, 5 μM ATP

Test [1] concerns the target FGFR1 (Homo sapiens (Human), UniProt P11362). Description: FGFR1 kinase activity at the molecular level (ELISA, Poly(Glu,Tyr) 4:1 substrate). As to the method:
(§1) 100 μL/well of 2 mg/mL OPD developing solution (diluted with 0.1M citric acid-sodium citrate buffer containing 0.03% H2O2 (pH=5.4)), and reacted in dark for 1-10 minutes at 25° C.
Background: An ELISA detects its analyte on a solid surface through an enzyme-linked reagent.

Test [2] addresses FGFR2 (Homo sapiens (Human), UniProt P21802). Description: FGFR2 kinase activity at the molecular level (ELISA, Poly(Glu,Tyr) 4:1 substrate). The method, then:
as §1

Test [3] addresses FGFR3 (Homo sapiens (Human), UniProt P22607). Description: FGFR3 kinase activity at the molecular level (ELISA, Poly(Glu,Tyr) 4:1 substrate). As to the method: as §1

A word on the IC50: it is the midpoint of a concentration-inhibition curve.

FGFR1, sequence (P11362 478-767): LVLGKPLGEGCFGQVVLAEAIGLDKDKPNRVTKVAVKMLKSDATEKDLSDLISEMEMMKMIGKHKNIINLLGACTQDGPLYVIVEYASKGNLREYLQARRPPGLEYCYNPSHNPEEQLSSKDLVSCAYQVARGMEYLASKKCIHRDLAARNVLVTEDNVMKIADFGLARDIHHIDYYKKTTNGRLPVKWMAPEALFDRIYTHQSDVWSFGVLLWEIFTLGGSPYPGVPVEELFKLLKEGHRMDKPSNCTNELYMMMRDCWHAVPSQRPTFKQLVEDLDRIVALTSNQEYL
FGFR2, sequence (P21802 481-770): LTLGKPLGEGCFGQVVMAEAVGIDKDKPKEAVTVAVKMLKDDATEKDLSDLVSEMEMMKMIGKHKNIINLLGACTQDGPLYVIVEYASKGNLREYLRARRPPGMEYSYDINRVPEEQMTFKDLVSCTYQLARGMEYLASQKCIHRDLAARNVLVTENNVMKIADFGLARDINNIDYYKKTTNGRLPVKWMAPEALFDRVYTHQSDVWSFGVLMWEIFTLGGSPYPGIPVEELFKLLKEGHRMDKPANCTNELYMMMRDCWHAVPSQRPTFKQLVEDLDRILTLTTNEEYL
FGFR3, sequence (P22607 472-761): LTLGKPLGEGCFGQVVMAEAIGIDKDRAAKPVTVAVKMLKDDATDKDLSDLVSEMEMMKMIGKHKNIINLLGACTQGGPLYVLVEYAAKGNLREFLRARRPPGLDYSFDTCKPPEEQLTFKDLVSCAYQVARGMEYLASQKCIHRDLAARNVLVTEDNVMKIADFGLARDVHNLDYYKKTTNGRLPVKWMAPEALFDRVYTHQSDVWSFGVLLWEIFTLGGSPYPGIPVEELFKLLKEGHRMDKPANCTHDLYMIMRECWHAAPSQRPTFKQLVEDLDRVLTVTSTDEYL

Consider `COc1cc(OC)c(Cl)c(-c2ccc3c(NC(=O)c4ccc(N5CCN(C)CC5)cc4)n[nH]c3n2)c1Cl` [Example 63, N-(6-(2,6-dichloro-3,5-dimethoxyphenyl)-1H-pyrazolo [3,4-b]pyridin-3-yl)-4-(4-methylpiperazine-1-yl)benzamide], for which the IC50 in test [1], in test [2] and in test [3] was less than 0.1 µM throughout.

With `COc1cc(OC)c(F)c(-c2ccc3c(NC(=O)c4cnc(N5CCN(C)CC5)nc4)n[nH]c3c2)c1F` [Example 96, N-(6-(2,6-difluoro-3,5-dimethoxyphenyl)-1H-indazole-3-yl)-2-(4-methylpiperazine-1-yl) pyrimidine-5-formamide], the IC50 in test [1] and in test [2] was less than 0.1 µM throughout.

For the molecule `COc1cc(OC)c(F)c(-c2ccc3c(NC(=O)c4ccc(N5CCC(N(C)C)C5)cc4)n[nH]c3c2)c1F` (centres unmarked) [Example 98, N-(6-(2,6-difluoro-3,5-dimethoxyphenyl)-1H-indazole-3-yl)-4-(3-(dimethylamino)pyrrolidine-1-yl)benzamide], the IC50 in test [1] and in test [2] was less than 0.1 µM in each case.

Take `COc1cc(OC)c(Cl)c(-c2ccc3c(NC(=O)c4ccc(CN(C)C)cc4)n[nH]c3c2)c1Cl` [Example 34, N-(6-(2,6-dichloro-3,5-dimethoxyphenyl)-1H-indazole-3-yl)-4-((dimethylamino)methyl)benzamide]: the concentration for half-maximal inhibition (IC50) in test [1] and in test [2] was less than 0.1 µM throughout.

Turning to `COc1cc(OC)c(Cl)c(-c2ccc3c(NC(=O)c4ccc(N5CCNC(C)(C)C5)cc4)n[nH]c3n2)c1Cl` [Example 72], the IC50 in test [1] and in test [2] was less than 0.1 µM each time.

Take `COc1cc(OC)c(F)c(-c2ccc3c(NC(=O)c4ccc(N5C[C@@H](C)N[C@@H](C)C5)cc4)n[nH]c3c2)c1` [Example 55]: the IC50 in test [1] and in test [2] was less than 0.1 µM each time.

`COc1cc(OC)c(Cl)c(-c2ccc3c(NC(=O)c4ccc(NCCN(C)C)cc4)n[nH]c3c2)c1Cl` [Example 20, N-(6-(2,6-dichloro-3,5-dimethoxyphenyl)-1H-indazole-3-yl)-4-((2-(dimethylamino)ethyl)amino)benzamide]: the IC50 in test [1] and in test [2] was less than 0.1 µM throughout.

Regarding `COc1cc(OC)c(F)c(-c2ccc3c(NC(=O)c4ccc(N5CCN(C)CC5)cc4)n[nH]c3n2)c1F` [Example 48, N-(6-(2,6-difluoro-3,5-dimethoxyphenyl)-1H-pyrazolo [3,4-b]pyridine-3-yl)-4-(4-methylpiperazine-1-yl)benzamide], the IC50 in test [1] and in test [2] was less than 0.1 µM each time.

For `COc1cc(OC)c(F)c(-c2ccc3c(NC(=O)c4ccc(N5CCN(C)CC5)cc4)n[nH]c3c2)c1F` [Example 45, N-(6-(2,6-difluoro-3,5-dimethoxyphenyl)-1H-indazole-3-yl)-4-(4-methylpiperazine-1-yl)benzamide], the IC50 in test [1] and in test [2] was less than 0.1 µM each time.

`COc1cc(OC)c(Cl)c(-c2ccc3c(NC(=O)c4ccc(N5C[C@@H](C)N(C)[C@@H](C)C5)cc4)n[nH]c3n2)c1Cl` [Example 90]: the IC50 in test [1] and in test [2] was less than 0.1 µM each time.

`COc1cc(OC)c(Cl)c(-c2ccc3c(NC(=O)c4ccc(N5CCN(C6CC6)CC5)cc4)n[nH]c3n2)c1Cl` [Example 89]: the IC50 in test [1] and in test [2] was less than 0.1 µM each time.

In the case of `COc1cc(OC)c(Cl)c(-c2ccc3c(NC(=O)c4ccc(N5CCC(N(C)C)CC5)cc4)n[nH]c3c2)c1Cl` [Example 37, N-(6-(2,6-dichloro-3,5-dimethoxyphenyl)-1H-indazole-3-yl)-4-(4-(dimethylamino)piperidine-1-yl)benzamide], the IC50 in test [1] and in test [2] was less than 0.1 µM each time.

Turning to `COCCN1CCN(c2ccc(C(=O)Nc3n[nH]c4nc(-c5c(Cl)c(OC)cc(OC)c5Cl)ccc34)cc2)CC1` [Example 67], the IC50 in test [1] and in test [2] was less than 0.1 µM each time.

In the case of `COc1cc(OC)c(Cl)c(-c2ccc3c(NC(=O)c4cnn(CCO)c4)n[nH]c3c2)c1Cl` [Example 31, N-(6-(2,6-dichloro-3,5-dimethoxyphenyl)-1H-indazole-3-yl)-1-(2-hydroxyethyl)-1H-pyrazol-4-formamide], the IC50 in test [1] and in test [2] was less than 0.1 µM each time.

For `COc1cc(C(=O)Nc2n[nH]c3cc(-c4c(F)c(OC)cc(OC)c4F)ccc23)ccc1N1CCNC(C)(C)C1` [Example 97, N-(6-(2,6-difluoro-3,5-dimethoxyphenyl)-1H-indazole-3-yl)-4-(3,3-dimethylpiperazine-1-yl)-3-methoxybenzamide], the IC50 in test [1] and in test [2] was less than 0.1 µM each time.

As for `COc1cc(OC)c(Cl)c(-c2ccc3c(NC(=O)c4ccc(N5C[C@@H](C)N[C@@H](C)C5)cc4)n[nH]c3n2)c1` [Example 66], the IC50 in test [1] and in test [2] was less than 0.1 µM throughout.

On to `COc1cc(OC)c(Cl)c(-c2ccc3c(NC(=O)c4ccc(N5CCN(C(C)=O)CC5)cc4)n[nH]c3c2)c1Cl` [Example 36, 4-(4-acetylpiperazine-1-yl)-N-(6-(2,6-dichloro-3,5-dimethoxyphenyl)-1H-indazole-3-yl)benzamide], for which the IC50 in test [1] and in test [2] was less than 0.1 µM each time.

Consider `COc1cc(OC)c(Cl)c(-c2ccc3c(NC(=O)c4ccc(N5CCNC(C)(C)C5)nc4)n[nH]c3n2)c1Cl` [Example 87, N-(6-(2,6-dichloro-3,5-dimethoxyphenyl)-1H-pyrazolo [3,4-b]pyridin-3-yl)-6-(3,3-dimethylpiperazine-1-yl)nicotinamide], for which the IC50 in test [1] and in test [2] was less than 0.1 µM throughout.

For `COc1cc(OC)c(Cl)c(-c2ccc3c(NC(=O)c4ccc(N5CCN(CCO)CC5)cc4)n[nH]c3c2)c1Cl` [Example 27, N-(6-(2,6-dichloro-3,5-dimethoxyphenyl)-1H-indazole-3-yl)-4-(4-(2-hydroxyethyl)piperazinyl)benzamide], the IC50 in test [1] and in test [2] was less than 0.1 µM in each case.

As to `COc1cc(OC)cc(-c2ccc3c(NC(=O)c4ccc(N5C[C@@H](C)N[C@@H](C)C5)cc4)n[nH]c3c2)c1` [Example 29, N-(6-(3,5-dimethoxyphenyl)-1H-indazole-3-yl)-4-((3R, 5S)-3,5-dimethylpiperazine-1-yl)benzamide], the IC50 in test [1] and in test [2] was less than 0.1 µM in each case.

`COc1cc(OC)c(Cl)c(-c2ncc3c(NC(=O)c4ccc(N5CCN(C)CC5)cc4)n[nH]c3n2)c1Cl` [Example 83]: the IC50 in test [1] and in test [2] was less than 0.1 µM throughout.

For `COc1cc(OC)cc(-c2ccc3c(NC(=O)c4ccc(N5C[C@@H](C)N[C@@H](C)C5)cc4)n[nH]c3n2)c1` [Example 68, N-(6-(3,5-dimethoxyphenyl)-1H-pyrazolo [3,4-b]pyridin-3-yl)-4-(((3R,5S)-3,5-dimethylpiperazine-1-yl))benzamide], the IC50 in test [1] and in test [2] was less than 0.1 µM in each case.

As for `COc1cc(OC)c(Cl)c(-c2ccc3c(NC(=O)c4ccc(N5CCNC(C)(C)C5)c(F)c4)n[nH]c3n2)c1Cl` [Example 91, N-(6-(2,6-dichloro-3,5-dimethoxyphenyl)-1H-pyrazolo [3,4-b]pyridin-3-yl)-4-(3,3-dimethylpiperazine-1-yl)-3-fluorobenzamide], the concentration for half-maximal inhibition (IC50) in test [1] and in test [2] was less than 0.1 µM throughout.

For `COc1cc(OC)c(Cl)c(-c2ccc3c(NC(=O)c4ccc(N5C[C@@H](C)N[C@@H](C)C5)cc4)n[nH]c3n2)c1Cl` [Example 64, N-(6-(2,6-dichloro-3,5-dimethoxyphenyl)-1H-pyrazolo [3,4-b]pyridin-3-yl)-4-((3S,5R)-3,5-dimethylpiperazine-1-yl)benzamide], the IC50 in test [1] and in test [2] was less than 0.1 µM in each case.

Consider `COc1cc(OC)c(Cl)c(-c2ccc3c(NC(=O)c4ccc(N5CC6(CNC6)C5)cc4)n[nH]c3n2)c1Cl` [Example 73, N-(6-(2,6-dichloro-3,5-dimethoxyphenyl)-1H-pyrazolo [3,4-b]pyridin-3-yl)-4-(2,6-diazaspiro [3.3]heptane-2-yl)benzamide], for which the 50% inhibitory concentration (IC50) in test [1] and in test [2] was less than 0.1 µM in each case.

With `COc1cc(OC)c(Cl)c(-c2ccc3c(NC(=O)c4ccc(N5CCC(N(C)C)C5)cc4)n[nH]c3n2)c1Cl` (centres unmarked) [Example 100], the IC50 in test [1] and in test [2] was less than 0.1 µM in each case.

In the case of `COc1cc(OC)c(Cl)c(-c2ccc3c(NC(=O)c4ccc(NCCCN(C)C)cc4)n[nH]c3c2)c1Cl` [Example 26, N-(6-(2,6-dichloro-3,5-dimethoxyphenyl)-1H-indazole-3-yl)-4-((3(dimethylamino)propyl)amino)benzamide], the IC50 in test [1] and in test [2] was less than 0.1 µM in each case.

For the molecule `COc1cc(OC)c(F)c(-c2ccc3c(NC(=O)c4ccc(N5CCNC(C)(C)C5)cc4)n[nH]c3c2)c1F` [Example 46, N-(6-(2,6-difluoro-3,5-dimethoxyphenyl)-1H-indazole-3-yl)-4-(3,3-dimethylpiperazine-1-yl)benzamide], the IC50 in test [1] and in test [2] was less than 0.1 µM throughout.

As to `COc1cc(OC)c(F)c(-c2ccc3c(NC(=O)c4ccc(CN5CCN(C)CC5)cc4)n[nH]c3c2)c1F` [Example 94, N-(6-(2,6-difluoro-3,5-dimethoxyphenyl)-1H-indazole-3-yl)-4-((4-methylpiperazine-1-yl)methyl)benzamide], the IC50 in test [1] and in test [2] was less than 0.1 µM throughout.
